# Data published in paper PMC10233092, “Selective Janus kinase 1 inhibition resolves inflammation and restores hair growth offering a viable treatment option for alopecia areata” (Skin Health and Disease, 2023).
# Values joined by “and” are separate entries in the source; they are usually repeats but may differ in a detail not shown here. Equal values may be shown once.
# What was measured:
# [1] = Plasma and skin exposure in treated AA mice; conditions: AA mice
# [2] = Mouse pharmacokinetics i.v./p.o.; format: in vivo; conditions: plasma, male C57Bl6 mice; for clearance / Vd: iv, i.v. 0.5-1.0 mg/kg; for Vd: read-out: V ss; for bioavailability: po, p.o. 300 (A), 1.0 (B), 2.0 (C) mg/kg, read-out: Oral % F
# Procedure: (§1) Detailed description in Supplementary materials.
# Pharmacokinetics and evaluation of compound exposures: Male C57/BL mice were obtained from Si Bei Fu and weighed approximately 20-30 grams (7-9 weeks) at the start of the pharmacokinetic study. Animals had free access to food and water during the course of the experiment. Dose formulations were prepared on the study day and were stirred at room temperature for at least 15 minutes prior dosing and during the administration event. Cmpd A, B and C were dosed at 0.5-1 mg/kg i.v. and 1-300 mg/kg p.o. The dorsal metatarsal vein was used for sampling and typically 0.02 mL blood was withdrawn. Blood was taken at 2, 5, 15, 45 min, 2, 4, 8, 24 hours post the i.v. dose and at 15, 30 min, 1, 2, 4, 8, 24 hours post the p.o. dose. Blood of each sample was transferred into plastic micro centrifuge tubes containing 2 μL of 1000 IU Heparin-Na anticoagulant. These tubes were then inverted several times and placed on wet ice prior to centrifugation at 10,000 rpm for 2 minutes at 4°C in order to collect plasma. Plasma samples were stored at -75±15°C prior analysis. Compound concentrations were analyzed using a LC-MS/MS method (see below).
# Effective T1/2 equals Ln2 x Vss/CL.
# [3] = Plasma protein binding by equilibrium dialysis; format: in vitro ADME; conditions: mouse plasma
# Source text: as §1
# [4] = system: C3H/HeJ mouse model of AA; assay: Taqman gene expression in mouse skin; format: in vivo; conditions: Mean±SEM
# Procedure: RNA was prepared according to a standard phenol‐chloroform total RNA extraction method where skin samples were homogenized in QIAzol® Lysis Reagent (QIAGEN Sciences, Maryland 20847, USA), added chloroform, vortexed and centrifuged for phase separation. The RNA containing phase was ethanol precipitated and purified on an Applied Biosystems 6100 Nucleic Acid Prep Station. RNA integrity was measured on the Fragment Analyzer platform (AATI, IA, USA) using standard sensitivity RNA analysis kit.
# cDNA was synthesized from mouse skin RNA using the High Capacity cDNA Reverse Transcription Kit from Life Technologies. Gene expression was performed on the QuantStudio™ 7 Flex Real‐Time PCR System (Applied Biosystems, Foster City, CA, USA) using custom made TaqMan® Array Micro Fluidic Cards. Results were analyzed with the QuantStudio™ 7 Flex Real‐Time PCR System software. Detailed description in Supplementary materials.
# RNA extraction: Frozen 20 mg skin biopsies were transferred to 2 mL eppendorf tubes placed on dry ice, added 5 stainless steel beads of 3 mm ø and 750 μL cold QIAzol® Lysis Reagent (QIAGEN Sciences, Maryland 20847, USA). The samples were mounted on a Mixer Mill Tissue Lyser (Retsch GmbH, Haan, Germany) and homogenized for 2 x 5 minutes at 30 Hz, then centrifuged for 1 minute at 6000g, added 150 μL CHCl3, vigorously shaken for 15 seconds and incubated for 3 minutes. After 15 minutes centrifugation at 6000g the aqueous RNA containing phase was transferred to a 96 deep well plate and mixed with an equal volume of 70 % Ethanol. The RNA-Ethanol precipitate was purified and DNase treated on a 6100 Nucleic Acid Prep Station (Applied Biosystems, Foster City, CA, USA). Total RNA was eluted in 100 μL Elution Buffer (Applied Biosystems, Foster City, CA, USA) and the concentrations were measured on the NanoDrop ND-1000 Spectrophotometer (Thermo Fischer Scientific, Wilmington, DE, USA) at 260 nm.
# cDNA synthesis: cDNA synthesis was performed using the High Capacity cDNA Reverse Transcription Kit from Life Technologies (Applied Biosystems, Foster City, CA, USA) according to the manufacturer´s instructions. The cDNA samples were diluted with RNase free water to 100 ng/µL, in a later (experiment) to 200 ng/µL.
# The gene expression results are shown as log2 Fold Change. With the calibrator group close to zero, up- or down regulation of the target genes are visualized as positive or negative values, making it easier to assess the size of, in particular, the down regulations.
# [5] = system: C3H/HeJ mouse model of AA; assay: Skin histopathology and hair follicle analysis in AA mice; format: in vivo; conditions: for Follicle width / Number of hair follicles per section (hypodermal): individual mice and Mean; for skin inflammation, result in words: AA mice, oral daily servings (systemic exposure)
# Procedure: A 1 cm^2 area of skin was excised from the right dorsal surface and fixed in 10% neutral buffered formalin for 24 h before processing and embedding in paraffin wax according to standard procedures. Vertical sectioning was chosen to allow for optimal detection of inflammatory cells whilst enabling follicular counts. 3 μm longitudinal sections were cut and stained with haematoxylin and eosin for histopathological analysis. Skin sections were scanned using an Aperio Scanscope. CD8 and NKG2D in situ hybridization (ISH) was carried out using the RNAScope technique[48] according to the manufacturer's protocols. Briefly, tissue sections were deparaffinised and incubated with epitope retrieval solution 2 for 15 min at 88°C followed by ACD protease for 10 min before hybridization with probe Mm‐Klrk1 (ACD, Cat.No.430808) and probe Mm‐Cd8a‐C2 (ACD, Cat.No. 401688‐C2) or duplex negative control probes Mm‐DapB (ACD, Cat.No. 320758). Bound probe was visualized following amplification with RNAScope 2.5 LS Duplex Reagent Kit‐(RED/BROWN) (ACD Cat.No. 322440). Staining was visualized by light microscopy. Number of hair follicles and hair follicle width were analyzed using ImageJ software edition ImageJ2. Images were imported using the bio‐format importer plug in. The number of follicles were counted using the cell counter plugin. All follicles on all sections in the dermal fat layer were counted. Follicle width was calculated with use of the circle tool to capture follicle area and from it calculate the width. All follicles on all sections in the dermal fat layer were included in the width analysis.
# [6] = system: IL‐13, STAT6‐Luc; assay: IL-13-induced JAK-STAT6-luciferase assay in U937 monocytes; format: cell-based; conditions: Homo sapiens, U-937, interleukin at EC80
# [7] = biological target: JAK2 (Homo sapiens, UniProt O60674); assay: JAK2 kinase inhibition, Calliper assay; format: biochemical; conditions: physiological ATP concentration of 5 mM
# Sequence of JAK2 (O60674 whole entry, species assumed): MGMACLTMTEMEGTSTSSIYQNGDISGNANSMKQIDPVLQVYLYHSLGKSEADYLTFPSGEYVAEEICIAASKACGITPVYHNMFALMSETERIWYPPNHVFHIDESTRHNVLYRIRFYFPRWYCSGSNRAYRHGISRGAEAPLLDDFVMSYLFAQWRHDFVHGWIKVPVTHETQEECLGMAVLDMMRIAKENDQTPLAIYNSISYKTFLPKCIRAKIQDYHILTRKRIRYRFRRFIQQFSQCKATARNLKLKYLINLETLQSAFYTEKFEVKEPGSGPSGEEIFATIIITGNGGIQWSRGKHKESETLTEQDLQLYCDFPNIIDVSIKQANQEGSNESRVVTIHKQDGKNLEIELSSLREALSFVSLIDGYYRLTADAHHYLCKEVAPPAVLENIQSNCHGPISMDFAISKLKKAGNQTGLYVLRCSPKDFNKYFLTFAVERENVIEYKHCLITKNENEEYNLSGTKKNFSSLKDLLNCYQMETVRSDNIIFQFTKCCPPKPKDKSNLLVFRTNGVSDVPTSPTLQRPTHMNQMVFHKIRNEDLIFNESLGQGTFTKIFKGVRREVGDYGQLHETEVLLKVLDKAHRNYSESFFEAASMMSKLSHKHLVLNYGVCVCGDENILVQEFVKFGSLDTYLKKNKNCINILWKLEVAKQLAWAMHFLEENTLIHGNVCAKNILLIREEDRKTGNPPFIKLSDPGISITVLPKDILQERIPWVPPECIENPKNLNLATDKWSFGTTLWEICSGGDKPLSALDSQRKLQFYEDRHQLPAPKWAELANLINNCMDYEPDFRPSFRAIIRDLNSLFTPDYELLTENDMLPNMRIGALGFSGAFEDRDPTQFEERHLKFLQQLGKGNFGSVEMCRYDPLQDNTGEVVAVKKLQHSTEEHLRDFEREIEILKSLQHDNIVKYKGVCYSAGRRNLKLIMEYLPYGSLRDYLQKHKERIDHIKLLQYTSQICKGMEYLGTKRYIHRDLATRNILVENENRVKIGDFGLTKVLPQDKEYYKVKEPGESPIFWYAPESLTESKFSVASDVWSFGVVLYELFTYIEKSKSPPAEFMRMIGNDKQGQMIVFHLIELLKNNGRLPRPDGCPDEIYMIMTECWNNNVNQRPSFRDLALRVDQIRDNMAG
# [8] = 8w off Tx (4 weeks oral treatment, then 8 weeks off)
# [9] = 8w off Tx (4 weeks oral treatment, then 8 weeks off), mean
# [10] = Systemic JAK1i, after 4 weeks oral treatment
# [11] = Systemic JAK1i, after 4 weeks oral treatment, mean
# [12] = topical cream application (local)
smiles,measurement,setting,value
Cc1cnc(Nc2cccnc2F)nc1-c1c[nH]c2c(NC(=O)[C@@H](C)N3CCN(C)CC3)cccc12 [Cmpd A],estimated average free exposure in plasma over IC50,[1]; oral daily servings (systemic),1.2 fold IC50
same,estimated average free exposure in skin over IC50,[1]; oral daily servings (systemic),0.1 fold IC50
same,clearance,[2],32 mL/min/kg
same,Vd,[2],9.1 L/kg
same,bioavailability,[2],100%
same,"f u, plasma",[3],0.038
same,"CD8a expression in skin, fold change (log2) from AA",[4]; 8w off Tx,"-0.32 ± 0.45 (0.97, n=6) log2 fold change"
same,"CXCL9 expression in skin, fold change (log2) from AA",[4]; 8w off Tx,"-0.33 ± 0.73 (0.96, n=6) log2 fold change"
same,"CXCL10 expression in skin, fold change (log2) from AA",[4]; 8w off Tx,"-0.32 ± 0.61 (0.97, n=6) log2 fold change"
same,"CXCL11 expression in skin, fold change (log2) from AA",[4]; 8w off Tx,"0.43 ± 0.73 (0.93, n=6) log2 fold change"
same,"GZMB expression in skin, fold change (log2) from AA",[4]; 8w off Tx,"-0.81 ± 0.73 (0.099, n=3) log2 fold change"
same,"ICOS expression in skin, fold change (log2) from AA",[4]; 8w off Tx,"-0.05 ± 0.09 (0.34, n=2) log2 fold change"
same,"Krt32 expression in skin, fold change (log2) from AA",[4]; 8w off Tx,"-1.44 ± 0.98 (0.062, n=6) log2 fold change"
same,"MX1 expression in skin, fold change (log2) from AA",[4]; 8w off Tx,"-0.37 ± 0.41 (0.67, n=6) log2 fold change"
same,"STAT1 expression in skin, fold change (log2) from AA",[4]; 8w off Tx,"-0.30 ± 0.28 (0.67, n=6) log2 fold change"
same,"CD8a expression in skin, fold change (log2) from AA","[4]; Systemic JAKi (oral, 4 weeks)","-2.56 ± 0.24 (<0.001, n=6) log2 fold change"
same,"CXCL9 expression in skin, fold change (log2) from AA","[4]; Systemic JAKi (oral, 4 weeks)","-3.83 ± 0.47 (<0.001, n=6) log2 fold change"
same,"CXCL10 expression in skin, fold change (log2) from AA","[4]; Systemic JAKi (oral, 4 weeks)","-3.28 ± 0.42 (<0.001, n=5) log2 fold change"
same,"CXCL11 expression in skin, fold change (log2) from AA","[4]; Systemic JAKi (oral, 4 weeks)","-4.32 ± 0.36 (<0.001, n=5) log2 fold change"
same,"ICOS expression in skin, fold change (log2) from AA","[4]; Systemic JAKi (oral, 4 weeks)","-1.05 ± 0.12 (0.0083, n=4) log2 fold change"
same,"Krt32 expression in skin, fold change (log2) from AA","[4]; Systemic JAKi (oral, 4 weeks)","-3.16 ± 0.13 (<0.001, n=6) log2 fold change"
same,"MX1 expression in skin, fold change (log2) from AA","[4]; Systemic JAKi (oral, 4 weeks)","-3.71 ± 0.21 (<0.001, n=6) log2 fold change"
same,"STAT1 expression in skin, fold change (log2) from AA","[4]; Systemic JAKi (oral, 4 weeks)","-2.29 ± 0.25 (<0.001, n=6) log2 fold change"
same,Follicle width,[5]; [8],36 μm and 26 μm and 38 μm and 31 μm and 35 μm
same,Number of hair follicles per section (hypodermal),[5]; [8],51 and 595 and 35 and 9 and 44 and 48
same,Follicle width,[5]; [9],32 μm
same,Number of hair follicles per section (hypodermal),[5]; [9],130
same,"skin inflammation, result in words",[5],resolution of inflammation in the skin
same,Follicle width,[5]; [10],28 μm and 26 μm and 29 μm and 25 μm
same,Number of hair follicles per section (hypodermal),[5]; [10],150 and 542 and 263 and 363 and 20 and 288
same,Follicle width,[5]; [11],27 μm
same,Number of hair follicles per section (hypodermal),[5]; [11],271
same,IC50,[6],120 nM
same,IC50,[7],18000 nM
"Cc1cnc(Nc2cc(N3C[C@@H]4C[C@H]3CN4C)cnc2F)nc1N[C@H](C)[C@H](C)CO [Cmpd B, (2S,3R)-3-{[2-({2-fluoro-5-[(1S,4S)-5-methyl-2,5-diazabicyclo[2.2.1]heptan-2-yl]pyridin-3-yl}amino)-5-methylpyrimidin-4-yl]amino}-2-methylbutan-1-ol]",estimated average free exposure in plasma over IC50,[1]; [12],0.02 fold IC50
same,estimated average free exposure in skin over IC50,[1]; [12],1.9 fold IC50
same,clearance,[2],38 mL/min/kg
same,Vd,[2],8.4 L/kg
same,bioavailability,[2],16%
same,"f u, plasma",[3],0.74
same,"CD8a expression in skin, fold change (log2) from AA",[4]; Local JAK1i (treated side),"1.06 ± 0.63 (0.245, n=6) log2 fold change"
same,"CXCL9 expression in skin, fold change (log2) from AA",[4]; Local JAK1i (treated side),"0.60 ± 0.50 (0.69, n=6) log2 fold change"
same,"CXCL10 expression in skin, fold change (log2) from AA",[4]; Local JAK1i (treated side),"0.23 ± 0.49 (0.99, n=6) log2 fold change"
same,"CXCL11 expression in skin, fold change (log2) from AA",[4]; Local JAK1i (treated side),"0.06 ± 0.63 (0.99, n=6) log2 fold change"
same,"GZMB expression in skin, fold change (log2) from AA",[4]; Local JAK1i (treated side),"0.93 ± 0.35 (0.45, n=5) log2 fold change"
same,"ICOS expression in skin, fold change (log2) from AA",[4]; Local JAK1i (treated side),"1.33 ± 0.18 (<0.001, n=4) log2 fold change"
same,"Krt32 expression in skin, fold change (log2) from AA",[4]; Local JAK1i (treated side),"-0.81 ± 0.70 (0.49, n=6) log2 fold change"
same,"MX1 expression in skin, fold change (log2) from AA",[4]; Local JAK1i (treated side),"0.03 ± 0.38 (0.99, n=6) log2 fold change"
same,"STAT1 expression in skin, fold change (log2) from AA",[4]; Local JAK1i (treated side),"1.09 ± 0.29 (<0.001, n=6) log2 fold change"
same,"CD8a expression in skin, fold change (log2) from AA",[4]; Local JAK1i (untreated side),"1.02 ± 0.71 (0.80, n=6) log2 fold change"
same,"CXCL9 expression in skin, fold change (log2) from AA",[4]; Local JAK1i (untreated side),"0.82 ± 0.65 (0.41, n=6) log2 fold change"
same,"CXCL10 expression in skin, fold change (log2) from AA",[4]; Local JAK1i (untreated side),"-0.03 ± 0.74 (0.99, n=6) log2 fold change"
same,"CXCL11 expression in skin, fold change (log2) from AA",[4]; Local JAK1i (untreated side),"0.08 ± 0.76 (0.99, n=6) log2 fold change"
same,"GZMB expression in skin, fold change (log2) from AA",[4]; Local JAK1i (untreated side),"0.77 ± 0.37 (0.64, n=5) log2 fold change"
same,"ICOS expression in skin, fold change (log2) from AA",[4]; Local JAK1i (untreated side),"1.06 ± 0.29 (0.0018, n=5) log2 fold change"
same,"Krt32 expression in skin, fold change (log2) from AA",[4]; Local JAK1i (untreated side),"-0.64 ± 0.71 (0.70, n=6) log2 fold change"
same,"MX1 expression in skin, fold change (log2) from AA",[4]; Local JAK1i (untreated side),"0.02 ± 0.41 (0.99, n=6) log2 fold change"
same,"STAT1 expression in skin, fold change (log2) from AA",[4]; Local JAK1i (untreated side),"1.07 ± 0.29 (<0.001, n=6) log2 fold change"
same,IC50,[6],100 nM
same,IC50,[7],> 30000 nM
COCC(C(=O)Nc1cccc2c(-c3nc(Nc4cccc(S(C)(=O)=O)c4F)ncc3F)c[nH]c12)N1CCN(C)CC1 (centres unmarked) [Cmpd C],clearance,[2],26 mL/min/kg
same,Vd,[2],6.9 L/kg
same,bioavailability,[2],86%
same,"f u, plasma",[3],0.11
same,"skin inflammation, result in words",[5],resolved inflammation
